Here are results for one compound from patent publication US20240240224A1, “FLUORESCENT D-TYPE AMINO ACID METABOLISM MARKER-BASED METHOD FOR DETECTING ANTIBACTERIAL DRUG SENSITIVITY TEST” (priority 2020, published 2024).

Converted amounts (≈) assume the structure as drawn. Bounds are passed on as bounds.

Holding throughout (details): unit assumed
In one assay the test system is S. aureus Sa22. As to the kind of experiment: BMD susceptibility test. The format is cell-based, Staphylococcus aureus.
Another assay has as its system S. aureus Sa23. The assay can be described thus: BMD susceptibility test. The format is cell-based, Staphylococcus aureus.
The subject of the next assay is E. faecium Ef28. As to the kind of experiment: FaAST (FDAA metabolic labeling method). The format is cell-based, Enterococcus faecium. How it is done: Take the colony to be tested that has been cultured overnight on the plate and fully mix it in normal saline to make a uniform bacterial solution. Dilute it into Cation-Adjusted Mueller Hinton Broth (CAMHB) culture medium to make a bacterial solution with OD600=0.05. • 2. Add 45 μl antibiotic solutions of different concentrations to 96-well plates (see Table 1 for antibiotic concentration gradient settings). • 3. Add 50 μl of the bacterial solution prepared in step 1 to the 96-well plate and mix well. • 4. Add 5 μl of 10 mM Cy5-DAA probe (final concentration 0.15 mM, see FIG. 1 for its structure) into each well, mix well, and cultivate in dark for 2 hours. • 5. Add 200 μl After PBS solution is diluted, the fluorescence intensity of each sample is detected by flow cytometry. […] The MIC (minimum inhibitory concentration) can be obtained by referring to this curve.

Assay [1] concerns E. coli Ec11. The assay can be described thus: BMD susceptibility test. The format is cell-based, Escherichia coli.
The subject of assay [2] is E. coli Ec11. The assay can be described thus: FaAST (FDAA metabolic labeling). The format is cell-based, Escherichia coli. The method, boiled down:
(§1)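 Bacteria diluted to OD600=0.05 in CAMHB were exposed to an antibiotic concentration series with Cy5-DAA probe […] for 2 h in the dark. Per-sample fluorescence was read by flow cytometry after PBS dilution. MIC was taken from the antibiotic concentration–fluorescence curve.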

Another assay concerns Ec ATCC 25922. The assay can be described thus: FaAST (FDAA metabolic labeling). The format is cell-based, Escherichia coli. The procedure, abridged:
as §1

A further assay relates to E. coli Ec13. The assay can be described thus: FaAST (FDAA metabolic labeling). The format is cell-based, Escherichia coli. The method, boiled down: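 Bacteria at OD600=0.05 in CAMHB mixed with antibiotic dilutions plus Cy5-DAA probe at 0.15 mM final, then incubated 2 h in the dark. Cell-wall labeling fluorescence measured by flow cytometry after PBS dilution.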
In a further assay the test system is P. aeruginosa Pa2. As to the kind of experiment: BMD susceptibility test. The format is cell-based, Pseudomonas aeruginosa.
A further assay deals with P. aeruginosa Pa3. The assay can be described thus: BMD susceptibility test. The format is cell-based, Pseudomonas aeruginosa.
The next assay has as its system A. baumannii Ab16. The assay can be described thus: FaAST (FDAA metabolic labeling). The format is cell-based, Acinetobacter baumannii. On the procedure:
The specific experimental steps are as follows: • 1. Take the colony to be tested that has been cultured overnight on the plate and fully mix it in normal saline to make a uniform bacterial solution. Dilute it into CAMHB medium to make a bacterial solution with OD600=0.05. • 2. Add 45 μl antibiotic solutions to be tested of different concentrations to 96-well plates (see Table 3 for antibiotic concentration gradient settings). • 3. Add 50 μl of bacterial solution prepared in Step 1 to the 96-well plate and mix well. • 4.5 μl of 10 mM Cy5-DAA probe was added to each well (final concentration was 0.15 mM, and its structure was shown in FIG. 1). After mixing, the probe was incubated for 2 hours in the dark. • 5. After dilution with 200 μl PBS solution, the fluorescence intensity of each sample was detected by flow cytometry.

The next assay concerns A. baumannii Ab19. As to the kind of experiment: BMD susceptibility test. The format is cell-based, Acinetobacter baumannii.
The test system of assay [3] is alveolar lavage fluid sample 0130, A. baumannii. As to the kind of experiment: FaAST (FDAA) susceptibility test of patient alveolar lavage fluid. The format is cell-based, Acinetobacter baumannii. The method, boiled down: (§2)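 Patient BALF mixed 1:1 with double-strength CAMHB, then combined with antibiotics at graded concentrations and Cy5-DAA probe (0.15 mM final). Cultured 2 h in the dark, diluted in PBS, and per-sample fluorescence intensity read by flow cytometry as the susceptibility read-out.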

The subject of assay [4] is alveolar lavage fluid sample 0204, A. baumannii. Described as above. The format is cell-based, Acinetobacter baumannii. The procedure, abridged: as §2
The test system of assay [5] is alveolar lavage fluid sample 0206, A. baumannii. Described as above. The format is cell-based, Acinetobacter baumannii. The method, boiled down: as §2
The test system of assay [6] is alveolar lavage fluid sample 0219, A. baumannii. The description is as above. The format is cell-based, Acinetobacter baumannii. The procedure, abridged:
as §2

Assay [7] concerns Acinetobacter baumannii ABA16. As to the kind of experiment: FaAST with DAA-Cy5-2 probe. The format is cell-based. On the procedure: (§3) With reference to the flow chart of the rapid detection method of antimicrobial susceptibility test based on FDAA metabolic markers shown in FIG. 3, FDAA is used for the detection of antimicrobial susceptibility test of alveolar lavage fluid. The specific experimental steps are as follows: • 1. Mix bronchoalveolar lavage fluid (BALF, 10 ml) of patients with hospital acquired pneumonia with cation regulated broth medium (CAMHB, 10 ml) of twice the concentration to prepare the bacterial fluid to be tested. • 2. Add 45 μl antibiotic solutions of different concentrations to the 96-well plate separately (see Table 1 for antibiotic concentration gradient settings). • 3. Add 50 μl of the bacterial solution prepared in step 1 to the 96-well plate and mix well. • 4. Add 5 μl of 10 mM Cy5-DAA probe (final concentration 0.15 mM, see FIG. 1 for its structure) into each well, mix well, and then cultivate in dark for 2 hours. • 5. Add 200 μl PBS solution for dilution, and then use flow cytometry to detect the fluorescence intensity of each sample.
(§4) The specific steps are the same as in Example 5. […] The minimum inhibitory concentration of antibiotics was obtained according to the fluorescence signal intensity of flow detection, and the statistical results are shown in Table 7.

The test system of assay [8] is Pseudomonas aeruginosa PAE853. The assay can be described thus: FaAST with DAA-Cy5-2 probe. The format is cell-based. How it is done: as §3, §4

For the compound `C[C@H]1COc2c(N3CCN(C)CC3)c(F)cc3c(=O)c(C(=O)O)cn1c23` [Levofloxacin, levofloxacin], the BMD (MIC) with S. aureus Sa22 is 32 µg/mL; with S. aureus Sa23, 1 µg/mL; in the assay on E. coli Ec11 [1] it was at most 0.25 µg/mL; with P. aeruginosa Pa2 it was 0.5 µg/mL; in the assay on P. aeruginosa Pa3, 0.5 µg/mL; in the assay on A. baumannii Ab19, at most 0.25 µg/mL. Moreover, the FaAST (MIC) in the assay on E. faecium Ef28 was 64 µg/mL; in the assay on E. coli Ec11 [2], 0.5 µg/mL; in the assay with Ec ATCC 25922, at most 0.25 µg/mL; in the assay with E. coli Ec13, 4 µg/mL; in the assay on A. baumannii Ab16 it was 32 µg/mL; in [3], 64 µg/mL. For the same compound, the FaAST (MIC) in assay [4] stood at 0.25 µg/mL; in [5], 64 µg/mL; in assay [6], 64 µg/mL. In addition, the MIC, FaAST stood at 32 µg/mL (≈ 88.6 µM) in [7] and 0.5 µg/mL (≈ 1.38 µM) in assay [8].
